Laboratory results taken from ChEMBL document CHEMBL1126699, “Structure-activity relationships in 1,4-benzodioxan-related compounds. 4. Effect of aryl and alkyl substituents at position 3 on alpha-adrenoreceptor blocking activity” (J Med Chem, 1993).

Assays:
[1] = biological target: Adrenergic receptor alpha (Rattus norvegicus) (UniProt P15823+P23944+P43140+P22086+P19328+P22909); assay: Selectivity ratio is the antilog of the difference between pA2 values at alpha1- and alpha2- adrenoceptors
[2] = biological target: T1, Adrenergic receptor alpha-2 (Rattus norvegicus, UniProt P22086+P19328+P22909); assay: Tested for the alpha-2-adrenoceptor blocking activity by antagonism of clonidine-induced depression of the twitch responses of the field-stimulated prostatic portion of isolated rat vas deferens (inactive up to 30 uM); format: functional, tissue-based
T1 sequence (P22086 whole entry): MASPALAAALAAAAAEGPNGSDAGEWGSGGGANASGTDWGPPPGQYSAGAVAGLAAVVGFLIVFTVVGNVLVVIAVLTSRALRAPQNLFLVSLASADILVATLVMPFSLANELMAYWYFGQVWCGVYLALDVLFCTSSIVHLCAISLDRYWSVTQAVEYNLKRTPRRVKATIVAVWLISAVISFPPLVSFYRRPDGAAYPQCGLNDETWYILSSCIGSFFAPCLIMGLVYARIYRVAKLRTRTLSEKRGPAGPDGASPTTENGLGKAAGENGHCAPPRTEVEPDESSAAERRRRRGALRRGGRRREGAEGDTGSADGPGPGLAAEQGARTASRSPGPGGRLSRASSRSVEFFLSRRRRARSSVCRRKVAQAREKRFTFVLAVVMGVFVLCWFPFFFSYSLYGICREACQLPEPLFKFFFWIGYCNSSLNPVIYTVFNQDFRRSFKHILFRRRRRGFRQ
T1 sequence (P19328 whole entry): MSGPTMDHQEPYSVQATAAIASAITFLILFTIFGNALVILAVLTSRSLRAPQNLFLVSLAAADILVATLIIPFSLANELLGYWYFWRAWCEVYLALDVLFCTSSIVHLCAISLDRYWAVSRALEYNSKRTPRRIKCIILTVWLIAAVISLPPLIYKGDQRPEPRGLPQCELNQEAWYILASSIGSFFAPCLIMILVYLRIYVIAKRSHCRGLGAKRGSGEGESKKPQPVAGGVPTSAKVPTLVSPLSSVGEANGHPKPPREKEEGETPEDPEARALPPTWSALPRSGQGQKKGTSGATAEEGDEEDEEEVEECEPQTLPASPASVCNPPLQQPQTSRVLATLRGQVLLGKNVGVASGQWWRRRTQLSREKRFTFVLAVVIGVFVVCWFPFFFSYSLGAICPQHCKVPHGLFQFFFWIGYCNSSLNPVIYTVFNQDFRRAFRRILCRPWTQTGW
T1 sequence (P22909 whole entry): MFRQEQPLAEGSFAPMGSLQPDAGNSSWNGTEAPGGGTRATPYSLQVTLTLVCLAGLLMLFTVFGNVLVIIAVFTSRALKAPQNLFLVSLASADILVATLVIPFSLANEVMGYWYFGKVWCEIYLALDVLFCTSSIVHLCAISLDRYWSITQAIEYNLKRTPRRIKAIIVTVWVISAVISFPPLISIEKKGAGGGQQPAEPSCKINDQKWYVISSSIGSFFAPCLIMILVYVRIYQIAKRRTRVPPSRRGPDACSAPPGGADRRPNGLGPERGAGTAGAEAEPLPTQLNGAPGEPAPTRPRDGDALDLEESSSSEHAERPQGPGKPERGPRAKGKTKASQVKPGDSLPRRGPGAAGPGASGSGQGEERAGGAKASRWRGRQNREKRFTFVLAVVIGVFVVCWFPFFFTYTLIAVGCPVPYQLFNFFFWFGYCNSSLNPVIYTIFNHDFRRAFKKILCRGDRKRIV

[3] = biological target: T2, Adrenergic receptor alpha-1 (Rattus norvegicus, UniProt P15823+P23944+P43140); assay: Ex vivo alpha-1-adrenoceptor blocking activity by antagonism of (-)-norepinephrine -induced contractions of the epididymal portion of isolated rat vas deferens.; format: functional
T2 sequence (P15823 whole entry): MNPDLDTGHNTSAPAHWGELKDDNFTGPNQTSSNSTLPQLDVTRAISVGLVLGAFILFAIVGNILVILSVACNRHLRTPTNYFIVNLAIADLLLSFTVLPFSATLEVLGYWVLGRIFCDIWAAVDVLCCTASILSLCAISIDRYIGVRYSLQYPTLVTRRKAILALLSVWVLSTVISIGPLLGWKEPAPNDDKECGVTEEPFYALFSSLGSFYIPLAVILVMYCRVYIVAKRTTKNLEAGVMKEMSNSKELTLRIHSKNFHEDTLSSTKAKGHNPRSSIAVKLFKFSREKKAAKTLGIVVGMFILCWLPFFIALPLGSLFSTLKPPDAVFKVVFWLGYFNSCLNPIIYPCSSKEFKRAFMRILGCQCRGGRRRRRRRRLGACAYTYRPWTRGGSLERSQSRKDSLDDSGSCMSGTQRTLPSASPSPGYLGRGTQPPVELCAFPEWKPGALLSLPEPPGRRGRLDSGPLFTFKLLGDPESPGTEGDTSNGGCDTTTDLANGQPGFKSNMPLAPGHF
T2 sequence (P23944 whole entry): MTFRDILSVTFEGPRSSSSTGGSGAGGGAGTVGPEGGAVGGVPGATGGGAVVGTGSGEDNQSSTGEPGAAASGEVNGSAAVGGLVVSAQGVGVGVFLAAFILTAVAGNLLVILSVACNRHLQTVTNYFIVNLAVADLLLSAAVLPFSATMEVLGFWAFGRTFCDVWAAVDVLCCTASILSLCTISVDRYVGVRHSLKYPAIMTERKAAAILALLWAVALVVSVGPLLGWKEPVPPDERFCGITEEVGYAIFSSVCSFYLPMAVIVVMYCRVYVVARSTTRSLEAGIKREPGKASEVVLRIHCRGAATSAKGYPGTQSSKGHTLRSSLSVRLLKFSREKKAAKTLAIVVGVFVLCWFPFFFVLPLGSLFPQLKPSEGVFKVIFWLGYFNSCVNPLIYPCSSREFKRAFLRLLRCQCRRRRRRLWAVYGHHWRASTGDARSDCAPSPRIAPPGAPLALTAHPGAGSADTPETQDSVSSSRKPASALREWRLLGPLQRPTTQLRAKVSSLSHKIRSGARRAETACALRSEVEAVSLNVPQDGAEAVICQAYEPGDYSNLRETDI
T2 sequence (P43140 whole entry): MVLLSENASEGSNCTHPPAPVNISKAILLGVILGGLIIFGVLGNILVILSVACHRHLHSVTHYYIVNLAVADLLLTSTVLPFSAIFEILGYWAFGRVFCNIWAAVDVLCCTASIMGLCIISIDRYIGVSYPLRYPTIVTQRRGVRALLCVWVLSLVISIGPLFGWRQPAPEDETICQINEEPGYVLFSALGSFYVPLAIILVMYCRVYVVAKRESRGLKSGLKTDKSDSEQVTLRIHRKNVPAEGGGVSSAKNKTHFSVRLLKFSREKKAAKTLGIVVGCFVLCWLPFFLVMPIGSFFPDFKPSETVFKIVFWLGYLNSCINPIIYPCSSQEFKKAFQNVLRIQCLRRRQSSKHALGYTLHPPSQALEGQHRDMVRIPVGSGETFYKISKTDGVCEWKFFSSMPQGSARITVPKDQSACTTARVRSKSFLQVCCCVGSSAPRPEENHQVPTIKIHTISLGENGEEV

[4] = biological target: T1, Adrenergic receptor alpha-2; assay: Tested for the alpha-2-adrenoceptor blocking activity by antagonism of clonidine-induced depression of the twitch responses of the field-stimulated prostatic portion of isolated rat vas deferens; at concentration 30 uM; format: functional
[5] = biological target: T1, Adrenergic receptor alpha-2; assay: Tested for the alpha-2-adrenoceptor blocking activity by antagonism of clonidine-induced depression of the twitch responses of the field-stimulated prostatic portion of isolated rat vas deferens; format: functional, tissue-based
[6] = biological target: T1, Adrenergic receptor alpha-2; assay: Tested for the alpha-2-adrenoceptor blocking activity by antagonism of clonidine-induced depression of the twitch responses of the field-stimulated prostatic portion of isolated rat vas deferens; inactive uM; format: functional

| SMILES | Ratio [1] | pA2 [2] | pA2 [3] | pA2 [4] | pA2 [5] | pA2 [6] |
| --- | --- | --- | --- | --- | --- | --- |
| COc1cccc(OC)c1OCCNC[C@H]1Oc2ccccc2O[C@H]1C1CCCCC1 | > 50 | < 4.52 | 6.2 | – | – | – |
| COc1cccc(OC)c1OCCNC[C@H]1Oc2ccccc2O[C@H]1c1ccc(C)cc1 | 73 | – | 7.1 | 5.24 | – | – |
| COc1cccc(OC)c1OCCNC[C@H]1Oc2ccccc2O[C@@H]1C1CCCCC1 | > 40 | < 4.52 | 6.09 | – | – | – |
| COc1cccc(OC)c1OCCNCC1COc2ccccc2O1 (stereo unspecified) | 740 | – | 9.26 | – | 6.39 | – |
| COc1cccc(OC)c1OCCNC[C@H]1Oc2ccccc2O[C@@H]1c1ccc(Cl)cc1 | 1000 | – | 8.15 | 5.17 | – | – |
| COc1cccc(OC)c1OCCNC[C@H]1Oc2ccccc2O[C@H]1C(C)C | 2 | – | 5.94 | – | 5.76 | – |
| CCc1ccc([C@H]2Oc3ccccc3O[C@@H]2CNCCOc2c(OC)cccc2OC)cc1 | > 2000 | – | 7.82 | – | – | < 4.52 |
| COc1ccc([C@H]2Oc3ccccc3O[C@@H]2CNCCOc2c(OC)cccc2OC)cc1 | > 14000 | – | 8.67 | – | – | < 4.52 |
| COc1cccc(OC)c1OCCNC[C@H]1Oc2ccccc2O[C@@H]1c1ccc(C)cc1 | 21000 | – | 8.69 | – | 4.37 | – |
| COc1cccc(OC)c1OCCNC[C@H]1Oc2ccccc2O[C@@H]1C | 30 | – | 7.94 | – | 6.46 | – |
| CCc1ccc([C@@H]2Oc3ccccc3O[C@@H]2CNCCOc2c(OC)cccc2OC)cc1 | > 500 | – | 7.23 | – | – | < 4.52 |
| COc1cccc(OC)c1OCCNC[C@H]1Oc2ccccc2O[C@H]1C | 630 | – | 8.5 | – | 5.7 | – |
| COc1cccc(OC)c1OCCNC[C@H]1Oc2ccccc2O[C@@H]1c1ccc(OC(C)=O)cc1 | 2600 | – | 8.12 | – | 4.87 | – |
| COc1cccc(OC)c1OCCNC[C@H]1Oc2ccccc2O[C@@H]1c1ccc(O)cc1 | 1000 | – | 7.84 | 4.82 | – | – |
| COc1cccc(OC)c1OCCNC[C@H]1Oc2ccccc2O[C@@H]1C(C)C | 4 | – | 6.57 | – | 5.94 | – |
| COc1cccc(OC)c1OCCNC[C@H]1Oc2ccccc2O[C@H]1c1ccc(Cl)cc1 | 210 | – | 7.09 | 4.76 | – | – |
| COc1cccc(OC)c1OCCNC[C@H]1Oc2ccccc2O[C@@H]1c1ccccc1 | 16000 | – | 8.39 | – | 4.18 | – |
